Assay results reported in ChEMBL document CHEMBL1201862, “PubChem BioAssay data set” (2004).
Calls of active or inactive are those of the source.

Tests used:
Kallikrein-7 = Kallikrein-7 (Homo sapiens, UniProt P49862); test: Fluorescence Intensity-based biochemical primary high throughput dose response assay to identify activators of kallikrein-7 (K7) zymogen.
[1] = target: Mitogen-activated protein kinase 10 (Homo sapiens, UniProt P53779); test: Dose response biochemical screening assay for inhibitors of c-Jun N-Terminal Kinase 3 (JNK3). [Related pubchem assays: 746 ]
Mitogen-activated protein kinase 10, sequence (P53779 whole entry): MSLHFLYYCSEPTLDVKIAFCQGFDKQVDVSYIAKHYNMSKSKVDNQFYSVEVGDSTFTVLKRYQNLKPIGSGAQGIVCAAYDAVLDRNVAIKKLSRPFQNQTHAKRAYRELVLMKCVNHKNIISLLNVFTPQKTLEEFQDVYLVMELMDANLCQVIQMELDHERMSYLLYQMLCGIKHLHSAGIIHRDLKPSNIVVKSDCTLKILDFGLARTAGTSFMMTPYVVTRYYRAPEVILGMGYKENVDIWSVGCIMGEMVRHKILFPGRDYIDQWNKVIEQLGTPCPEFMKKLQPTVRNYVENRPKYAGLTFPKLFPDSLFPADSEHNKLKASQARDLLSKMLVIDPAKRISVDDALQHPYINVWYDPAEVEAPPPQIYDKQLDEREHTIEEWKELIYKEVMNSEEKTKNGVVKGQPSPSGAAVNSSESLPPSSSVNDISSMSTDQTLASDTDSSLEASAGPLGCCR

[2] = target: Voltage-dependent T-type calcium channel subunit alpha-1H (Homo sapiens, UniProt O95180); format: functional;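 also: channel activity triggered by adding a high calcium stimulation buffer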
Voltage-dependent T-type calcium channel subunit alpha-1H, sequence (O95180 whole entry, the tested form may be a part): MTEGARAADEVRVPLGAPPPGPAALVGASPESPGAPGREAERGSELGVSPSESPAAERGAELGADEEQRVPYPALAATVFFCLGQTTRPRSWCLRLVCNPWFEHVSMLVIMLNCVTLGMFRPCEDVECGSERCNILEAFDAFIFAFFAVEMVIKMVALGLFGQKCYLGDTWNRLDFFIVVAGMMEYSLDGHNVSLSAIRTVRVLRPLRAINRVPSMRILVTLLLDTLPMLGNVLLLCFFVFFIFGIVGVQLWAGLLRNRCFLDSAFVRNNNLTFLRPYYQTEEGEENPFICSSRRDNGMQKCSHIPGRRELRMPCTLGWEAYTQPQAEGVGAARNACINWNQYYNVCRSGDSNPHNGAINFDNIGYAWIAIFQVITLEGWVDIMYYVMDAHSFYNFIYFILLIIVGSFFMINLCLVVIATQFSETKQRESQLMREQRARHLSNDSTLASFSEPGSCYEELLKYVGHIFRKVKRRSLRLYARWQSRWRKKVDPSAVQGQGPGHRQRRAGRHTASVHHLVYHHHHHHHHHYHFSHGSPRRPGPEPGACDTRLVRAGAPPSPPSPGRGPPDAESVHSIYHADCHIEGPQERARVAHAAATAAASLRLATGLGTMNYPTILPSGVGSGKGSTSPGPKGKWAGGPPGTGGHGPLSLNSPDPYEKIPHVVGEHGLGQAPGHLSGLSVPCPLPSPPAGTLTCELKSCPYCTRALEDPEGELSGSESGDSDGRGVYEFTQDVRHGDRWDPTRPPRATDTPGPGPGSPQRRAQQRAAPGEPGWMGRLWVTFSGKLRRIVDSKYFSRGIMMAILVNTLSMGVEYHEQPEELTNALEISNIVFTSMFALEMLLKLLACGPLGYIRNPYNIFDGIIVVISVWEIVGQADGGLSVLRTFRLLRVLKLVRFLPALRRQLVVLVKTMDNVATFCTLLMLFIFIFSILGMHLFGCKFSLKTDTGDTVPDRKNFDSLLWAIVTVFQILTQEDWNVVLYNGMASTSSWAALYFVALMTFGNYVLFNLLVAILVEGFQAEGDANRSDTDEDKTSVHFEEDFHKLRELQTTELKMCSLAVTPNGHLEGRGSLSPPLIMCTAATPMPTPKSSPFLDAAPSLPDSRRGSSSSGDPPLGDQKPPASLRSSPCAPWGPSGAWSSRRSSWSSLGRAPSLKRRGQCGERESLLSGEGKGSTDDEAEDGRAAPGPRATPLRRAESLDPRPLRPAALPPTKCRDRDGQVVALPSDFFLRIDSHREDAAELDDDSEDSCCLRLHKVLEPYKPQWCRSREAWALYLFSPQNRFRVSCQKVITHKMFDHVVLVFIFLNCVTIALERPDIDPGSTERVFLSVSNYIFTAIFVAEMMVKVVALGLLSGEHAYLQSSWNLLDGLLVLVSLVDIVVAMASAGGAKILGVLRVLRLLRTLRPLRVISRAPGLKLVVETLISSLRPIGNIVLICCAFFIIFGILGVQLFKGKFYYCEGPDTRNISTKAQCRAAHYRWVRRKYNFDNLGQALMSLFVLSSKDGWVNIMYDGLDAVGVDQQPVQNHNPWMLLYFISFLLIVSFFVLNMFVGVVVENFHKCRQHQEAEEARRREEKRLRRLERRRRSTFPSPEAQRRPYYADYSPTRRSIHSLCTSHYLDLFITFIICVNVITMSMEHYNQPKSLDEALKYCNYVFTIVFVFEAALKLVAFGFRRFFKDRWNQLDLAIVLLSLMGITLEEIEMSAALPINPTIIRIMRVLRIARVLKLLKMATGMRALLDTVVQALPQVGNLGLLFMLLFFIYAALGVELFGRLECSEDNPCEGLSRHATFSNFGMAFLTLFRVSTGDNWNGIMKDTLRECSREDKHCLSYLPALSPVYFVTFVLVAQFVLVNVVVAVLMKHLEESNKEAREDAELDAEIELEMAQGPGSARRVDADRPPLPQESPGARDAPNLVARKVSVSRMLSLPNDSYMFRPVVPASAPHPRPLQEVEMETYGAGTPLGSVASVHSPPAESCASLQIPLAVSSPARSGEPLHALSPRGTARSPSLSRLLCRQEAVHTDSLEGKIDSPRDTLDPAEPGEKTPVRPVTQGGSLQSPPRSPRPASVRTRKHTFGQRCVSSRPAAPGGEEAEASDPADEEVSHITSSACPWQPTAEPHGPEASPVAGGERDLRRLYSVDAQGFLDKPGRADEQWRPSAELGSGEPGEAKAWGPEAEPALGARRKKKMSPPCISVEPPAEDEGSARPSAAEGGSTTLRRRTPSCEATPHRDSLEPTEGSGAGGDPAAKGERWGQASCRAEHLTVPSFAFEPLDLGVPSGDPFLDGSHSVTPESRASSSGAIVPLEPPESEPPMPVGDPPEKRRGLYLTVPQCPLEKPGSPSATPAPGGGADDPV

[3] = off-target signal loss in HeLa-CEM21 co-culture – HeLa F-luc CTL cells, cherry-picked, counter-screen for HIV-1 Env fusion inhibitor project, dose response (AID 652040); format: functional, cell-based;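 also: potency for signal decrease marking cytotoxic or nonspecific inhibition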
[4] = inhibitors of HIV Env-driven cell fusion, dose response, cherry-pick (AID 652057); format: functional, cell-based
[5] = target: T1, Long-chain-fatty-acid--AMP ligase FadD28 (Mycobacterium tuberculosis, UniProt P9WQ59); test: Fluorescence polarization aasay to screen for inhibitors that compete for the binding of FadD28 to a bisubstrate Measured in Biochemical System Using Plate Reader - 2147-01_Inhibitor_Dose_CherryPick_Activity.; format: functional, Mycobacterium tuberculosis H37Rv
T1 sequence (P9WQ59 whole entry): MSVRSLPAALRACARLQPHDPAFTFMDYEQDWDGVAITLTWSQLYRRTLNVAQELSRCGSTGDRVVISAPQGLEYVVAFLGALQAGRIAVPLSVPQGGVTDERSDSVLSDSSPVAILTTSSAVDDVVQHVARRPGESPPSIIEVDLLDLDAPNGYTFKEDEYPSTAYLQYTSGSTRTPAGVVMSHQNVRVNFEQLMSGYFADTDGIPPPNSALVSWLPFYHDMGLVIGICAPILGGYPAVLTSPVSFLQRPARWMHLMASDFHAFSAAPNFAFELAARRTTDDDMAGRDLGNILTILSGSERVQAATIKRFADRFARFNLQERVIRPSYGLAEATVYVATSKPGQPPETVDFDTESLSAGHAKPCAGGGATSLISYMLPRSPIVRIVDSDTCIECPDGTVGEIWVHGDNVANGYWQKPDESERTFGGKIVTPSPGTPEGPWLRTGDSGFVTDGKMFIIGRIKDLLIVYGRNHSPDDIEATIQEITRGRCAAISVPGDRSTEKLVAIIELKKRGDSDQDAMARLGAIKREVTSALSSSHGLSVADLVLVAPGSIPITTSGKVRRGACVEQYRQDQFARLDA

[6] = inhibitors of clade B AD8 Env fusion, dose response, cell-based, cherry-pick (AID 652062); format: functional;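 also: luciferase signal from cell-cell fusion driven by HIV-1 clade B AD8 Env; potency is for inhibitors of fusion seen as a drop in luminescence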
[7] = inhibitors of Vif binding to APOBEC3G peptide, primary screen, biochemical, TR-FRET, GST-Vif 1-94, biotin-A3G peptide, dose response retest (AID 1117319); format: functional;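 also: TR-FRET signal of purified GST-Vif binding a biotinylated A3G peptide; inhibitors lower the FRET signal by blocking Vif and A3G binding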

Kallikrein-7, sequence (P49862 whole entry): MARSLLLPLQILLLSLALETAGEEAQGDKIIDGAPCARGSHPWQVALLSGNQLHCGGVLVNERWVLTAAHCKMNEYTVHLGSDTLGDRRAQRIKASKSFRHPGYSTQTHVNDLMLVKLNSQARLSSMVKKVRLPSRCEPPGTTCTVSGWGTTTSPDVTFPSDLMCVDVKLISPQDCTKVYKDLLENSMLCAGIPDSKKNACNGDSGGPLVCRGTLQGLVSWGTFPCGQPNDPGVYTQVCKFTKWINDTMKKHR

With `COc1ccc(OC)c(/C=C/C(=O)OCC(=O)NCc2ccco2)c1` as the compound, how does the EC50 (Kallikrein-7) read?
The EC50 was > 69.5 µM (inactive).

For `Cc1ccc(-c2cn3cccnc3n2)cc1NC(=O)c1ccc(Br)o1`, which EC50 (Kallikrein-7) is on record?
The EC50 was > 69.5 µM (inactive).

Which IC50 [1] does the source give for `Cc1ccc(Nc2cc(-n3nc(C)cc3C)ncn2)cc1` here?
Its IC50 is 13.4 µM (not active).

For `Cc1ccc(CSCCNC(=O)c2ccc(Cl)c(S(=O)(=O)N3CCOCC3)c2)cc1`, which EC50 [2] is on record?
The EC50 was 4.41 µM (active).

And the AC50 [3]?
The AC50 was 54.5 µM (active).

And the AC50 [4]?
Its AC50 is 25.3 µM (active).

And the AC50 [5]?
Its AC50 is 5.54 µM (active).

And the AC50 [6]?
Its AC50 is 7.44 µM (active).

With `CCn1c(S)nnc1Cc1c(C)[nH]c2ccccc12` as the compound, how does the IC50 [7] read?
The IC50 was > 100 µM (active).

Which EC50 (Kallikrein-7) does the source give for `Cc1coc2c1c(C)cc1oc(=O)c(CC(=O)NCCCCCC(=O)O)c(C)c12` here?
The EC50 was > 69.5 µM (inactive).
